Results reported in patent US5672715A, “Herbicidal substituted 3-aryl-pyrazoles” (Monsanto Company, priority 1995, dated 1997).

Columns and labels:
Format in all cases: in vivo
Barnyardgrass [1] = experiment: pre-emergence herbicide test; conditions: Echinochloa crus-galli, pre-emergence, 0.25 lb/A; read-out: % plant inhibition
In short: (§1)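 Greenhouse pan assay in which seeds lie under a treated topsoil cover; carrier was acetone or water. Inhibition (%) was recorded about 14 days post-treatment.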

Bedstraw Catchweed [2] = experiment: pre-emergence herbicide test; conditions: Galium aparine, pre-emergence, 0.25 lb/A; read-out: % plant inhibition
In short: as §1

Birdseye Speedwell [3] = experiment: pre-emergence herbicide test; conditions: pre-emergence, 0.25 lb/A; read-out: % plant inhibition
In short: as §1

Blackgrass [4] = experiment: pre-emergence herbicide test; conditions: Alopecurus myosuroides, pre-emergence, 0.25 lb/A; read-out: % plant inhibition
In short: as §1

Cocklebur [5] = experiment: pre-emergence herbicide test; conditions: Xanthium strumarium, pre-emergence, 0.25 lb/A; read-out: % plant inhibition
In short: as §1

Common Chickweed [6] = experiment: pre-emergence herbicide test; conditions: pre-emergence, 0.25 lb/A; read-out: % plant inhibition
In short: as §1

Corn [7] = experiment: pre-emergence herbicide test; conditions: Zea mays, pre-emergence, 0.25 lb/A; read-out: % plant inhibition
In short: as §1

Downy Brome [8] = experiment: pre-emergence herbicide test; conditions: Bromus tectorum, pre-emergence, 0.25 lb/A; read-out: % plant inhibition
In short: as §1

Giant Foxtail [9] = experiment: pre-emergence herbicide test; conditions: Setaria faberi, pre-emergence, 0.25 lb/A; read-out: % plant inhibition
In short: as §1

Green Foxtail [10] = experiment: pre-emergence herbicide test; conditions: Setaria viridis, pre-emergence; 0.25 lb/A; read-out: % plant inhibition
In short: as §1

Morning Glory [11] = experiment: pre-emergence herbicide test; conditions: Ipomoea, pre-emergence, 0.25 lb/A; read-out: % plant inhibition
In short: as §1

Rape [12] = experiment: pre-emergence herbicide test; conditions: pre-emergence, 0.25 lb/A; read-out: % plant inhibition
In short: as §1

Seedling Johnsongrass [13] = experiment: pre-emergence herbicide test; conditions: Sorghum halepense, pre-emergence, 0.25 lb/A; read-out: % plant inhibition
In short: as §1

Soybean [14] = experiment: pre-emergence herbicide test; conditions: Glycine max, pre-emergence, 0.25 lb/A; read-out: % plant inhibition
In short: as §1

Velvetleaf [15] = experiment: pre-emergence herbicide test; conditions: Abutilon theophrasti, pre-emergence, 0.25 lb/A; read-out: % plant inhibition
In short: as §1

Wheat [16] = experiment: pre-emergence herbicide test; conditions: Triticum aestivum, pre-emergence, 0.25 lb/A; read-out: % plant inhibition
In short: as §1

Wild Oats [17] = experiment: pre-emergence herbicide test; conditions: Avena fatua, pre-emergence, 0.25 lb/A; read-out: % plant inhibition
In short: as §1

Barnyardgrass [18] = experiment: post-emergence herbicide test; conditions: Echinochloa crus-galli, post-emergence, 0.25 lb/A; read-out: % plant inhibition
In short: (§2)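 Post-emergence activity is given as percent inhibition per species. Test compounds were atomizer-sprayed at 170.3 kPa, 1870 L/Ha carrier volume and roughly 0.4% v/v emulsifier onto greenhouse-raised plants aged two to three weeks, at the stated rates.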

Bedstraw Catchweed [19] = experiment: post-emergence herbicide test; conditions: Galium aparine, post-emergence, 0.25 lb/A; read-out: % plant inhibition
In short: as §2

Birdseye Speedwell [20] = experiment: post-emergence herbicide test; conditions: post-emergence, 0.25 lb/A; read-out: % plant inhibition
In short: as §2

Blackgrass [21] = experiment: post-emergence herbicide test; conditions: Alopecurus myosuroides, post-emergence, 0.25 lb/A; read-out: % plant inhibition
In short: as §2

Cocklebur [22] = experiment: post-emergence herbicide test; conditions: Xanthium strumarium, post-emergence, 0.25 lb/A; read-out: % plant inhibition
In short: as §2

Common Chickweed [23] = experiment: post-emergence herbicide test; conditions: post-emergence, 0.25 lb/A; read-out: % plant inhibition
In short: as §2

Corn [24] = experiment: post-emergence herbicide test; conditions: Zea mays, post-emergence, 0.25 lb/A; read-out: % plant inhibition
In short: as §2

Downy Brome [25] = experiment: post-emergence herbicide test; conditions: Bromus tectorum, post-emergence, 0.25 lb/A; read-out: % plant inhibition
In short: as §2

Giant Foxtail [26] = experiment: post-emergence herbicide test; conditions: Setaria faberi, post-emergence, 0.25 lb/A; read-out: % plant inhibition
In short: as §2

Green Foxtail [27] = experiment: post-emergence herbicide test; conditions: Setaria viridis, post-emergence, 0.25 lb/A; read-out: % plant inhibition
In short: as §2

Morning Glory [28] = experiment: post-emergence herbicide test; conditions: Ipomoea, post-emergence, 0.25 lb/A; read-out: % plant inhibition
In short: as §2

Rape [29] = experiment: post-emergence herbicide test; conditions: post-emergence, 0.25 lb/A; read-out: % plant inhibition
In short: as §2

Seedling Johnsongrass [30] = experiment: post-emergence herbicide test; conditions: Sorghum halepense, post-emergence, 0.25 lb/A; read-out: % plant inhibition
In short: as §2

Soybean [31] = experiment: post-emergence herbicide test; conditions: Glycine max, post-emergence, 0.25 lb/A; read-out: % plant inhibition
In short: as §2

Velvetleaf [32] = experiment: post-emergence herbicide test; conditions: Abutilon theophrasti, post-emergence, 0.25 lb/A; read-out: % plant inhibition
In short: as §2

Wheat [33] = experiment: post-emergence herbicide test; conditions: Triticum aestivum, post-emergence, 0.25 lb/A; read-out: % plant inhibition
In short: as §2

Wild Oats [34] = experiment: post-emergence herbicide test; conditions: Avena fatua, post-emergence, 0.25 lb/A; read-out: % plant inhibition
In short: as §2

Structure (SMILES)	inhibition at 280.212 g/ha (Barnyardgrass [1]) [%]	inhibition at 280.212 g/ha (Bedstraw Catchweed [2]) [%]	inhibition at 280.212 g/ha (Birdseye Speedwell [3]) [%]	inhibition at 280.212 g/ha (Blackgrass [4]) [%]	inhibition at 280.212 g/ha (Cocklebur [5]) [%]	inhibition at 280.212 g/ha (Common Chickweed [6]) [%]	inhibition at 280.212 g/ha (Corn [7]) [%]	inhibition at 280.212 g/ha (Downy Brome [8]) [%]	inhibition at 280.212 g/ha (Giant Foxtail [9]) [%]	inhibition at 280.212 g/ha (Green Foxtail [10]) [%]	inhibition at 280.212 g/ha (Morning Glory [11]) [%]	inhibition at 280.212 g/ha (Rape [12]) [%]	inhibition at 280.212 g/ha (Seedling Johnsongrass [13]) [%]	inhibition at 280.212 g/ha (Soybean [14]) [%]	inhibition at 280.212 g/ha (Velvetleaf [15]) [%]	inhibition at 280.212 g/ha (Wheat [16]) [%]	inhibition at 280.212 g/ha (Wild Oats [17]) [%]	inhibition at 280.212 g/ha (Barnyardgrass [18]) [%]	inhibition at 280.212 g/ha (Bedstraw Catchweed [19]) [%]	inhibition at 280.212 g/ha (Birdseye Speedwell [20]) [%]	also measured
Cc1cc(-c2nn(C)c(C(F)(F)F)c2C)c(O)cc1Cl [Compound 16]	0	45	100	15	0	95	0	20	0	10	0	55	0	0	0	0	20	0	25	30	inhibition at 280.212 g/ha (Blackgrass [21]): 5%; inhibition at 280.212 g/ha (Cocklebur [22]): 0%; inhibition at 280.212 g/ha (Common Chickweed [23]): 50%; inhibition at 280.212 g/ha (Corn [24]): 0%; inhibition at 280.212 g/ha (Downy Brome [25]): 0%; inhibition at 280.212 g/ha (Giant Foxtail [26]): 0%; inhibition at 280.212 g/ha (Green Foxtail [27]): 0%; inhibition at 280.212 g/ha (Morning Glory [28]): 5%; inhibition at 280.212 g/ha (Rape [29]): 0%; inhibition at 280.212 g/ha (Seedling Johnsongrass [30]): 0%; inhibition at 280.212 g/ha (Soybean [31]): 0%; inhibition at 280.212 g/ha (Velvetleaf [32]): 0%; inhibition at 280.212 g/ha (Wheat [33]): 0%; inhibition at 280.212 g/ha (Wild Oats [34]): 0%
CSCc1cc(-c2nn(C)c(C(F)(F)F)c2C)c(F)cc1Cl [Compound 27]	60	65	35	35	20	75	5	5	50	100	75	10	90	3	90	0	5	70	90	100	inhibition at 280.212 g/ha (Blackgrass [21]): 30%; inhibition at 280.212 g/ha (Cocklebur [22]): 80%; inhibition at 280.212 g/ha (Common Chickweed [23]): 65%; inhibition at 280.212 g/ha (Corn [24]): 65%; inhibition at 280.212 g/ha (Downy Brome [25]): 40%; inhibition at 280.212 g/ha (Giant Foxtail [26]): 35%; inhibition at 280.212 g/ha (Green Foxtail [27]): 75%; inhibition at 280.212 g/ha (Morning Glory [28]): 95%; inhibition at 280.212 g/ha (Rape [29]): 50%; inhibition at 280.212 g/ha (Seedling Johnsongrass [30]): 90%; inhibition at 280.212 g/ha (Soybean [31]): 80%; inhibition at 280.212 g/ha (Velvetleaf [32]): 98%; inhibition at 280.212 g/ha (Wheat [33]): 13%; inhibition at 280.212 g/ha (Wild Oats [34]): 25%
Cc1c(-c2cc(C(=O)OCc3ccco3)c(Cl)cc2F)nn(C)c1C(F)(F)F [Compound 57]	50	80	60	15	10	20	0	20	10	85	90	0	15	0	90	0	5	35	40	100	inhibition at 280.212 g/ha (Blackgrass [21]): 15%; inhibition at 280.212 g/ha (Cocklebur [22]): 85%; inhibition at 280.212 g/ha (Common Chickweed [23]): 55%; inhibition at 280.212 g/ha (Corn [24]): 3%; inhibition at 280.212 g/ha (Downy Brome [25]): 15%; inhibition at 280.212 g/ha (Giant Foxtail [26]): 15%; inhibition at 280.212 g/ha (Green Foxtail [27]): 40%; inhibition at 280.212 g/ha (Morning Glory [28]): 50%; inhibition at 280.212 g/ha (Rape [29]): 15%; inhibition at 280.212 g/ha (Seedling Johnsongrass [30]): 35%; inhibition at 280.212 g/ha (Soybean [31]): 17%; inhibition at 280.212 g/ha (Velvetleaf [32]): 100%; inhibition at 280.212 g/ha (Wheat [33]): 8%; inhibition at 280.212 g/ha (Wild Oats [34]): 25%
